Measurements as given in patent publication EP4818176A1, “TETRACYCLIC DERIVATIVE INHIBITOR, AND PREPARATION METHOD AND USE THEREFOR” (Shanghai Hansoh Biomedical Co., Ltd., priority 2023, dated 2025).
Like-named read-outs stand apart in the source and are kept apart here.

Experiments:
[1] = test system: MTAP Knockout HCT116 cells; assay: Cell proliferation inhibition (CellTiter-Glo), HCT116 MTAP knockout cells; format: cell-based; conditions: for Selectivity: HCT116 IC50 versus MTAP Knockout HCT116 IC50; for IC50: Homo sapiens
Procedure, shortened: (§1)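 Cells were grown in McCoy's 5A with 10% FBS, adhered overnight, then exposed to serial compound dilutions for 72-240 h at 37°C, 5% CO2, with a vehicle control. Viability was read as CellTiter-Glo luminescence, and IC50 came from nonlinear regression of inhibition rate against concentration.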

hERG potassium channel = hERG potassium channel (Homo sapiens, UniProt Q12809); assay: hERG potassium channel inhibitory activity assay (CHO-hERG cells, tail current); format: cell-based; conditions: inhibition of tail current, read-out: inhibitory activity (IC50) against the cardiac hERG potassium channel
Source text: Test Example 5: hERG potassium channel inhibitory activity assay
1 Study objective: The objective of this test example is to determine the inhibitory effect of the compound on the hERG potassium channel activity. 2 Experimental instruments and reagents: 2.1 Reagents
3. Experimental method • 3.1 Cell culture: The CHO cells stably expressing the hERG potassium channel (CHO-hERG) used in the experiment were obtained from Sophion Bioscience (Ballerup, Denmark), and passaged and cryopreserved at WuXi AppTec Co., Ltd. in Shanghai. The CHO-hERG cells were cultured and passaged in Ham's F-12 medium containing 1 × GlutaMAX, 10% foetal bovine serum, 100 µg/mL G418 and 100 µg/mL hygromycin B at 37°C with 5% CO2. • 3.2 Preparation of intracellular and extracellular solutions: The extracellular solution was prepared once a month, and aliquoted and stored in 1 L storage bottles. The intracellular solution was prepared once every three months, and aliquoted and cryopreserved at -20°C. The intracellular solution was thawed in a 37°C water bath before the experiment and then placed in an ice bath for later use. • 3.3 Preparation of compounds: The positive control drug amitriptyline hydrochloride and the compounds were dissolved in 100% DMSO (Sigma-Aldrich, D2650) to prepare 10 mM or 30 mM stock solutions. Before the experiment, the stock solutions of the test compounds were diluted with DMSO to prepare solutions 1000-fold or 333-fold higher than the desired test concentrations, and then further diluted 1000-fold or 333-fold with the extracellular solution to achieve the desired concentrations. • 3.4 Cell preparation: The CHO-hERG cells used in the experiment were cultured for at least two days. When the cell density reached more than 75%, the cells were digested with TrypLE, then resuspended in the extracellular solution, and centrifuged. The supernatant was discarded, and then the cells were further resuspended in 2 mL of extracellular solution for later use. • 3.4 Experimental data processing: In data processing, the peak tail current was baseline-corrected when evaluating the hERG blocking effect. The effect of each compound at various concentrations was expressed as the inhibition rate of the tail current. IC50 values were obtained by fitting the data to the Hill equation: I/Icontrol =Bottom + (Top-Bottom)/(1+10^((LogIC50-X) * HillSlope)) • Top: maximum effect; Bottom: minimum effect; Hillslope: slope; X: concentration of the test compound. • IC50: half-maximal inhibitory concentration of the test compound on hERG.

HCT116 wild-type cells = assay: Cell proliferation inhibition (CellTiter-Glo), HCT116 wild-type cells; format: cell-based; conditions: Homo sapiens
Procedure, shortened: as §1

[2] = biological target: T1, PRMT5/MEP50-MTA protein complex (Homo sapiens, UniProt O14744); assay: Thermal shift assay: thermal stability (melting temperature) of PRMT5/MEP50-MTA protein complex; format: binding; conditions: final compound concentration 8 µM; 2 µM PRMT5/MEP50, 2 µM MTA; Tm minus Tm of DMSO vehicle control
T1 construct: purchased Viva Biotech
Procedure, shortened: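 Human PRMT5/MEP50 (2 µM) was preincubated 30 min with 2 µM MTA in 50 mM HEPES, 10 mM DTT, 250 mM NaCl with SYPRO Orange. Compound at 8 µM final (2.5% DMSO vehicle) was added for 10 minutes, then samples were heated 25°C to 95°C at 0.03°C/s. Tm was derived from the melt curve.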

[3] = Pharmacokinetics in rats (plasma) after oral administration; format: in vivo; conditions: rat, po, SD rats, p.o. 5 mg/kg
Experimental: Test Example 4: Determination of the pharmacokinetics of the compounds of the present invention in rats (plasma) after oral administration.
1 Study objective: SD rats were used as test animals to study the pharmacokinetic behaviour of the following example compounds in rats (plasma) after oral administration at a dose of 5 mg/kg. 2 Test scheme • 2.1 Test drugs: Vehicle formula: 0.5% CMC-Na (1% Tween 80); the examples of the present invention, made in house. • 2.2 Test animals: 3 SD rats per group, male, purchased from Shanghai Bikai Keyi Biotechnology Co., Ltd., with animal license number (SCXK (Shanghai) 2018-0006, No.20180006037467). • 2.3 Administration: 3 SD rats per group, male, were fasted overnight and then respectively administered PO at a dose of 5 mg/kg and a volume of 10 mL/kg. • 2.4 Sample collection: 0.2 mL of blood was collected from the jugular vein of rats before administration and at 0, 0.25, 0.5, 1, 2, 4, 6, 8 and 24 h after administration, and placed in EDTA-K2test tubes, and the test tubes were centrifuged at 6,000 rpm at 4°C for 6 min to separate the plasma, which was stored at -80°C. The animals were fed 4 h after administration. • 2.5 Sample treatment • 1) 160 uL of acetonitrile was added to 40 uL of plasma sample for precipitation, and after mixing, the mixture was centrifuged at 3,500 × g for 5-20 minutes. • 2) 100 uL of the treated supernatant solution was taken for LC/MS/MS analysis to determine the concentration of the test compounds. • 2.6 Liquid phase analysis • Liquid phase conditions: Shimadzu LC-20AD pump;mass spectrometry conditions: AB Sciex API 4000 mass spectrometer • Chromatographic column: Phenomenex Gemiu 5 um C18 50 × 4.6 mm • Mobile phase: solution A: 0.1% formic acid in water, solution B: methanol • Flow rate: 1.0 mL/min, elution time: 0-4.0 min, with eluents as follows:
Experimental results and analysis: The main pharmacokinetic parameters were calculated using WinNonlin 8.2.

[4] = HCT-116, read-out: MTAP Knockout HCT116 IC50

T1 sequence (O14744 whole entry): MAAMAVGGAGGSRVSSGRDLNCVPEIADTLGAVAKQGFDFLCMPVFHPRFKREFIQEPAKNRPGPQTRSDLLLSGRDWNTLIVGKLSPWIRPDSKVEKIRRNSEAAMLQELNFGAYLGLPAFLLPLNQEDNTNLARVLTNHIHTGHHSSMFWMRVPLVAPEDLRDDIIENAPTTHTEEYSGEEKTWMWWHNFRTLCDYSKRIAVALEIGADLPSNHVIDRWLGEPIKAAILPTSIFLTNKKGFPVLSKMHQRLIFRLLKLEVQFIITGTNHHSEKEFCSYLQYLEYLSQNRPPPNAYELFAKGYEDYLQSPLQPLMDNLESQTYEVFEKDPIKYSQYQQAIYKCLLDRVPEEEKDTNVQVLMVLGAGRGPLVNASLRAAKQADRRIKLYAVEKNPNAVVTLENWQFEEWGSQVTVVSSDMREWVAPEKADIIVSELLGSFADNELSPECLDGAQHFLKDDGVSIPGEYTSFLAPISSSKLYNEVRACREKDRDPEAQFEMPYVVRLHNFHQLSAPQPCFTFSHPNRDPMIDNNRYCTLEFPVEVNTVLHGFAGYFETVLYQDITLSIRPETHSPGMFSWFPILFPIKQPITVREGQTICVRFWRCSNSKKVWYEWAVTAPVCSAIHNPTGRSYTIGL
T1 sequence (Q9BQA1 whole entry partner): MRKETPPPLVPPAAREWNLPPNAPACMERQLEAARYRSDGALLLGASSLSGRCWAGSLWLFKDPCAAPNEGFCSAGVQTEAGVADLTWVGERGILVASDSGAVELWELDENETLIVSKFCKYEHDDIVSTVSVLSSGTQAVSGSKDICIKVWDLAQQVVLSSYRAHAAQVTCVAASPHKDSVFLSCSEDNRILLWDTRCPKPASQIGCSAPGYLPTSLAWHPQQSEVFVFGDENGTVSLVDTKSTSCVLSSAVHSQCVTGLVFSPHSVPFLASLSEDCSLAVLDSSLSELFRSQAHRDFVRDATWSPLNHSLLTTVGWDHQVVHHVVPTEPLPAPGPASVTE
hERG potassium channel, sequence (Q12809 whole entry): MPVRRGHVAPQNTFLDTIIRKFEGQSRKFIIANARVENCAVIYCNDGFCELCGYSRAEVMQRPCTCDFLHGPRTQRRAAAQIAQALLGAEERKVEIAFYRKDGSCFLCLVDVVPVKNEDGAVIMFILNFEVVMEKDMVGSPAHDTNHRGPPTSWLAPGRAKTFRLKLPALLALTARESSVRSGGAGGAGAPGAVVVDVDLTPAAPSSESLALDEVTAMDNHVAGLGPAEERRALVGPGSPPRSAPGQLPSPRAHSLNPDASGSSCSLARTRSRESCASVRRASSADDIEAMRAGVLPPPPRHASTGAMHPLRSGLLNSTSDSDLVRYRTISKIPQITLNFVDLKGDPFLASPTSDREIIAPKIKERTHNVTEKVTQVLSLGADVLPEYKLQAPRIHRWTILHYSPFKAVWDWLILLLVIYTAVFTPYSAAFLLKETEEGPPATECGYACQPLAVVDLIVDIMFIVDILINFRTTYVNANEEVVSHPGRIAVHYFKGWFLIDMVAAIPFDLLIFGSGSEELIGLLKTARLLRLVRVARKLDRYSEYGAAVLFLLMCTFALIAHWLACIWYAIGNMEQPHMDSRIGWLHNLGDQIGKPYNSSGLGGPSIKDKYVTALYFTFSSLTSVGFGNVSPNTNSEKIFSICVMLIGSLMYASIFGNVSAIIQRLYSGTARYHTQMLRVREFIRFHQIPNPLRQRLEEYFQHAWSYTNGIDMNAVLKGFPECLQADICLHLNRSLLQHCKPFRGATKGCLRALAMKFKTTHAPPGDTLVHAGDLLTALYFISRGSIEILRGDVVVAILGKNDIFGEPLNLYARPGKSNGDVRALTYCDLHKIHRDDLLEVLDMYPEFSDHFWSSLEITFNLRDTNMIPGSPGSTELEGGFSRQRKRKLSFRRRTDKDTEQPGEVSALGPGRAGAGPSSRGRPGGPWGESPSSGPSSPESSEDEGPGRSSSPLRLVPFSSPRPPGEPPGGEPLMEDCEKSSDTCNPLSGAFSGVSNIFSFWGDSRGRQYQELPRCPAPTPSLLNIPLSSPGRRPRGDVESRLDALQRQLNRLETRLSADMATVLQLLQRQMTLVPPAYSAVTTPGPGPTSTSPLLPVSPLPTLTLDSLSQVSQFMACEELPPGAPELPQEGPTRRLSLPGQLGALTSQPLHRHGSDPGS

Row | SMILES | Selectivity [1] | IC50 ([1]; HCT-116, MTAP Knockout HCT116 cells, proliferation inhibition, Cell Titer-Glo, read-out: MTAP Knockout HCT116 IC50) [nM] | IC50 (hERG potassium channel) [nM] | IC50 (HCT116 wild-type cells; HCT-116, HCT116 wild-type cells, proliferation inhibition, Cell Titer-Glo, read-out: HCT116 IC50) [nM] | ΔTm at 8 µM [2] [°C] | IC50 [1, 4] [nM] | IC50 (HCT116 wild-type cells; HCT-116, read-out: HCT116 IC50) [nM] | AUC(0-inf) [3] [ng·h/mL] | half-life [3] [h] | Cmax ([3]; read-out: Cmax) [ng/mL] | MRT inf ([3]; read-out: MRT0-∞) [h] | Tmax ([3]; read-out: tmax) [h]
1 | Nc1nc2cc3c(cc2n2cncc12)C(=O)N(Cc1ccc(C(F)(F)F)cn1)CCCOC3 [Example 176, 4-Amino-12-((5-(trifluoromethyl)pyridin-2-yl)methyl)-9,10,11,12-tetrahydroimidazo[1,5-a][1,5]oxazonino[8,7-g]quinoxalin-13(7H)-one] | 62 | 15 | > 30000 | 946 | 11.5 |  |  |  |  |  |  | 
2 | Nc1nc2cc3c(cc2n2cncc12)C(=O)N(Cc1ccc(C(F)(F)F)cn1)CCCCOC3 [Example 417, 4-Amino-13-((5-(trifluoromethyl)pyridin-2-yl)methyl)-10,11,12,13-tetrahydro-7H-imidazo [1,5-a][1,6] oxazino [3,4-g] quinoxalin-14(9H)-one] | 346 |  | > 30000 |  | 11.1 | 11 | 3800 |  |  |  |  | 
3 | Nc1nc2cc3c(cc2c2c1COC2)C(=O)N(Cc1ccc(C(F)(F)F)cn1)CCCOC3 [Example 178, 4-Amino-12-((5-(trifluoromethyl)pyridin-2-yl)methyl)-3,7,9,10,11,12-hexahydrofuro[3,4-c][1,5]oxazolino[7,8-g]quinolin-13(1H)-one] | 131 |  | > 30000 |  | 11.2 | 18 | 2380 | 2790 | 1.9 | 544 | 3.7 | 1.7
4 | Nc1nc2cc3c(cc2n2cncc12)C(=O)N(Cc1ccc(-c2c(F)cccc2F)cn1)CCCOC3 [Example 298, 4-Amino-12-((5-(2,6-difluorophenyl)pyridin-2-yl)methyl)-9,10,11,12-tetrahydroimidazo[1,5-a][1,5]oxazolo[8,7-g]quinoxalin-13(7H)-one] | 81 |  | > 30000 |  | 12.5 | 2.7 | 219 |  |  |  |  | 
